The values below come from ChEMBL document CHEMBL3351509, “Identification of 3,6-disubstituted dihydropyrones as inhibitors of human lactate dehydrogenase” (Bioorg Med Chem Lett, 2014).

Data set [1] deals with L-lactate dehydrogenase A chain (Homo sapiens, UniProt P00338). As to the kind of experiment: Inhibition of human LDH-A by biochemical assay.
Data set [2] in a line: Dissociation constant, pKa of the compound. It counts as physicochemical.
The nature of data set [3]: Permeability from apical to basolateral side in MDCK cells. The format is ADME, cell-based, Canis lupus familiaris. The note with it: dog.
Data set [4] in a line: Permeability from basolateral to apical side in MDCK cells. The format is ADME, cell-based, Canis lupus familiaris. The note with it: dog.
Data set [5] in a line: Unbound fraction in human plasma. It counts as ADME, cell-free.
The nature of data set [6]: Unbound fraction in rat plasma. It counts as ADME, cell-free.
Data set [7] is described as follows: Kinetic solubility in pH 7.4 buffered aqueous solution. The format is physicochemical. The note with it: read-out: Kinetic_solubility.
Data set [8] in a line: Hepatic clearance in human liver microsomes. It counts as ADME.
Data set [9] in a line: Hepatic clearance in rat liver microsomes. It counts as ADME.
The subject of data set [10] is MCF7. As to the kind of experiment: Inhibition of lactate production in human MCF7 cells under standard serum conditions. The format is functional, cell-based.
Data set [11] has as its system MCF7. As to the kind of experiment: Inhibition of lactate production in human MCF7 cells in absence of serum. The format is functional, cell-based.
For data set [12], the system named is MCF7. As to the kind of experiment: Toxicity in human MCF7 cells assessed as effect on cell viability. The format is cell-based.

≈ marks a conversion by molar mass, not a printed value.

On to `O=C1CC(c2ccccc2)CC(O)=C1Sc1ccccc1Cl` (stereo not drawn), for which the IC50 in [1] was found to be 4 µM. The molecule further yielded a pKa in data set [2] of 3. This molecule returned a Papp A→B in [3] of 12 ×10⁻⁶ cm/s. In data set [4], this molecule gave a Papp B→A of 18 ×10⁻⁶ cm/s.

`O=C1OC(C(=O)O)(c2ccccc2)CC(O)=C1Sc1ccccc1Cl` (stereo not drawn): inhibition in data set [1] was half-maximal at 46 µM (IC50).

Consider `O=C1OC(c2ccccc2)CC(O)=C1Sc1ccccc1Cl` (stereo not drawn), for which, in data set [1], the IC50 is 4 µM. In data set [2], the pKa came to 2.4. The Papp A→B in [3] amounted to 3 ×10⁻⁶ cm/s. In data set [4], this molecule had a Papp B→A of 5 ×10⁻⁶ cm/s. The fraction unbound in data set [5] and in data set [6] was 0.008 throughout.

Molecule `O=C1NC(c2ccccc2)CC(O)=C1Sc1ccccc1Cl` (stereo not drawn) had a pKa in [2] of 4.1. Moreover, the Papp A→B in data set [3] came to 7 ×10⁻⁶ cm/s. Besides, in [4], the Papp B→A amounted to 9 ×10⁻⁶ cm/s. The results for the fraction unbound in [5] and in data set [6] were 0.003 and 0.006, respectively.

`O=C1OC(c2ccccc2)CC(O)=C1Oc1ccccc1Cl` (stereo not drawn) returned an IC50 in [1] of 11 µM. In data set [2], this molecule displayed a pKa of 3.4. The molecule further yielded a Papp A→B in data set [3] of 4 ×10⁻⁶ cm/s. In data set [4], this molecule returned a Papp B→A of 6 ×10⁻⁶ cm/s. The fraction unbound in data set [5] came out at 0.006; in [6], 0.013.

`O=C1CC(c2ccccc2)CC(O)=C1Oc1ccccc1Cl` (stereo not drawn) gave an IC50 in data set [1] of 26 µM. Also, in data set [2], the pKa amounted to 3.7. This molecule also yielded a Papp A→B in data set [3] of 11 ×10⁻⁶ cm/s. This molecule gave a Papp B→A in data set [4] of 16 ×10⁻⁶ cm/s. The figures for the fraction unbound in data set [5] and in data set [6] were 0.011 and 0.012, respectively.

Take `O=C1NC(c2ccccc2)CC(O)=C1Oc1ccccc1Cl` (stereo not drawn): half-maximal inhibition in data set [1] (IC50) was put at 11 µM. For the same molecule, the pKa in data set [2] was 5.3. The molecule also registered a Papp A→B in data set [3] of 11 ×10⁻⁶ cm/s. The molecule also returned a Papp B→A in data set [4] of 12 ×10⁻⁶ cm/s. The fraction unbound in data set [5] turned out to be 0.022; in data set [6], 0.023.

Turning to `O=C1OC(c2ccccc2)CC(O)=C1Nc1ccccc1Cl` (stereo not drawn), the IC50 in data set [1] came to 13 µM. The pKa in [2] is 4.2. In addition, the Papp A→B in data set [3] came out at 8 ×10⁻⁶ cm/s. The Papp B→A in data set [4] came out at 10 ×10⁻⁶ cm/s.

`O=C1CC(c2ccccc2)CC(O)=C1Nc1ccccc1Cl` (stereo not drawn): 25 µM corresponded to half-maximal inhibition in data set [1] (IC50). The molecule also gave a pKa in [2] of 4.6. In [3], this molecule gave a Papp A→B of 4 ×10⁻⁶ cm/s. The Papp B→A in data set [4] came out at 10 ×10⁻⁶ cm/s.

In turn, `O=C1NC(c2ccccc2)CC(O)=C1Nc1ccccc1Cl` (stereo not drawn) returned an IC50 in [1] of 66 µM. This molecule also yielded a pKa in data set [2] of 6. Besides, the Papp A→B in data set [3] is 19 ×10⁻⁶ cm/s. The Papp B→A in [4] is 30 ×10⁻⁶ cm/s.

In the case of `O=C1OC(c2ccccc2Cl)CC(O)=C1Sc1ccccc1Cl` (stereo not drawn), half-maximal inhibition in [1] (IC50) was put at 5.5 µM.

On to `O=C1OC(c2cccc(Cl)c2)CC(O)=C1Sc1ccccc1Cl` (stereo not drawn), for which 3.9 µM corresponded to half-maximal inhibition in data set [1] (IC50).

Molecule `O=C1OC(c2ccc(Cl)cc2)CC(O)=C1Sc1ccccc1Cl` (stereo not drawn) had an IC50 in data set [1] of 16 µM.

On to `O=C1OC(c2c(Cl)cccc2Cl)CC(O)=C1Sc1ccccc1Cl` (stereo not drawn), for which the IC50 in [1] was 5 µM.

`Cc1cccc(C)c1C1CC(O)=C(Sc2ccccc2Cl)C(=O)O1` (stereo not drawn) showed an IC50 in [1] of 17 µM.

Turning to `N#Cc1ccccc1C1CC(O)=C(Sc2ccccc2Cl)C(=O)O1` (stereo not drawn), the 50% inhibitory concentration (IC50) in data set [1] was over 100 µM.

`N#Cc1cccc(C2CC(O)=C(Sc3ccccc3Cl)C(=O)O2)c1` (stereo not drawn) had an IC50 in [1] of 9.5 µM.

Take `CCOc1ccccc1C1CC(O)=C(Sc2ccccc2Cl)C(=O)O1` (stereo not drawn): inhibition in data set [1] was half-maximal at 3.8 µM (IC50).

In the case of `CCOc1cccc(C2CC(O)=C(Sc3ccccc3Cl)C(=O)O2)c1` (stereo not drawn), the IC50 in [1] amounted to 2.2 µM.

As for `CC(C)C1CC(O)=C(Sc2ccccc2Cl)C(=O)O1` (stereo not drawn), the IC50 in [1] was over 100 µM.

With `O=C1OC(C2CCOCC2)CC(O)=C1Sc1ccccc1Cl` (stereo not drawn), in [1], the IC50 was over 100 µM.

As to `Cn1ccc(C2CC(O)=C(Sc3ccccc3Cl)C(=O)O2)n1` (stereo not drawn), the IC50 in [1] turned out to be 35 µM.

In turn, `O=C1OC(c2cncnc2)CC(O)=C1Sc1ccccc1Cl` (stereo not drawn) had an IC50 in [1] of 73 µM.

In data set [1], `O=C1OC(c2ccccn2)CC(O)=C1Sc1ccccc1Cl` (stereo not drawn) showed an IC50 of 3.5 µM.

As for `O=C1OC(c2cccnc2)CC(O)=C1Sc1ccccc1Cl` (stereo not drawn), the IC50 in [1] worked out at 15 µM.

In the case of `O=C1OC(c2ccncc2)CC(O)=C1Sc1ccccc1Cl` (stereo not drawn), the IC50 in data set [1] is 43 µM.

In data set [1], `CC1(c2ccccc2)CC(O)=C(Sc2ccccc2Cl)C(=O)O1` (stereo not drawn) gave an IC50 of 4.1 µM.

In [1], `O=C1OC(c2ccccc2)(C2CC2)CC(O)=C1Sc1ccccc1Cl` (stereo not drawn) came in with an IC50 of 13 µM.

`O=C1OC(CO)(c2ccccc2)CC(O)=C1Sc1ccccc1Cl` (stereo not drawn): it took 5.6 µM to reach half-maximal inhibition in [1] (IC50).

In turn, `NC(=O)C1(c2ccccc2)CC(O)=C(Sc2ccccc2Cl)C(=O)O1` (stereo not drawn) came in with an IC50 in data set [1] of 6.6 µM.

Take `CNC(=O)C1(c2ccccc2)CC(O)=C(Sc2ccccc2Cl)C(=O)O1` (stereo not drawn): 7.4 µM corresponded to half-maximal inhibition in data set [1] (IC50).

In [1], `CN(C)C(=O)C1(c2ccccc2)CC(O)=C(Sc2ccccc2Cl)C(=O)O1` (stereo not drawn) registered an IC50 of 22 µM.

As to `CNC(=O)CC1(c2ccccc2)CC(O)=C(Sc2ccccc2Cl)C(=O)O1` (stereo not drawn), the midpoint of inhibition in data set [1], the IC50, lay at 59 µM.

With `O=C1OC2(CCc3c(Br)cccc32)CC(O)=C1Sc1ccccc1Cl` (single isomer, unassigned), in data set [1], half-maximal inhibition (IC50) was put at 2.1 µM.

Turning to `O=C1OC2(CCOc3ccccc32)CC(O)=C1Sc1ccccc1Cl` (single isomer, unassigned; enantiomer A), 3.3 µM corresponded to half-maximal inhibition in data set [1] (IC50).

In data set [1], `O=C1OC2(CCCc3ccccc32)CC(O)=C1Sc1ccccc1Cl` (single isomer, unassigned; enantiomer A) yielded an IC50 of 2.1 µM.

In turn, `O=C1OC2(CCc3ccccc32)CC(O)=C1Sc1ccccc1Cl` (single isomer, unassigned; enantiomer A) registered an IC50 in [1] of 0.36 µM.

In data set [1], `O=C1OC2(CCc3c(Br)cccc32)CC(O)=C1Sc1ccccc1Cl` (single isomer, unassigned; enantiomer A) gave an IC50 of 0.35 µM.

In [1], `O=C1OC2(CCc3c(-c4ccccc4)cccc32)CC(O)=C1Sc1ccccc1Cl` (single isomer, unassigned; enantiomer A) registered an IC50 of 0.03 µM. The Papp A→B in [3] came to 1.6 ×10⁻⁶ cm/s. The fraction unbound in [5] and in data set [6] was under 0.01 in each case. Further, the solubility kinetic in data set [7] was determined as 169 µM (≈ 73.5 µg/mL). For the same molecule, the CLhep predicted in data set [8] is 20 mL/min/kg; in data set [9], 41 mL/min/kg. Also, the results for the concentration for a half-maximal effect (EC50) in the data set on MCF7 [10] and in the data set with MCF7 [11] were over 50 µM and 32 µM, respectively. In the data set on MCF7 [12], the Activity result is listed as “Non-toxic”.

On to `O=C1OC2(CCOc3ccccc32)CC(O)=C1Sc1ccccc1Cl` (single isomer, unassigned; enantiomer B), for which the midpoint of inhibition in data set [1], the IC50, lay at 28 µM.

`O=C1OC2(CCCc3ccccc32)CC(O)=C1Sc1ccccc1Cl` (single isomer, unassigned; enantiomer B) had an IC50 in [1] of 22 µM.

In [1], `O=C1OC2(CCc3ccccc32)CC(O)=C1Sc1ccccc1Cl` (single isomer, unassigned; enantiomer B) had a 50% inhibitory concentration (IC50) of 2.6 µM.

For the molecule `O=C1OC2(CCc3c(-c4ccccc4)cccc32)CC(O)=C1Sc1ccccc1Cl` (single isomer, unassigned; enantiomer b), in [1], the IC50 was 0.61 µM.
